Measurements from patent US8952024B2, “Herbicidal pyrimidone derivatives” (E I du Pont de Nemours and Company, priority 2009, dated 2015).

Legend:
Format in all cases: in vivo
[1] = tested on: morningglory (Ipomoea spp.); test: Test A pre-/postemergence plant response
Outline: (§1)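 Formulated test chemicals (non-phytotoxic solvent, surfactant) were sprayed onto soil right after planting and simultaneously onto young plants at one to two leaves, 2 to 10 cm tall. Plants stayed in the greenhouse about ten days; injury was then visually scored against untreated controls, from 0 (no effect) to 100 (complete control).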

[2] = tested on: pigweed (Amaranthus retroflexus); test: Test A pre-/postemergence plant response
Outline: as §1

[3] = tested on: large crabgrass (Digitaria sanguinalis); test: Test A pre-/postemergence plant response; conditions: for Crabgrass, Large plant response rating: visual injury, 0 to 100 scale (0 no effect, 100 complete control), approx. ten days
Outline: as §1

[4] = tested on: giant foxtail (Setaria faberii); test: Test A pre-/postemergence plant response
Outline: as §1

[5] = tested on: velvetleaf (Abutilon theophrasti); test: Test A pre-/postemergence plant response
Outline: as §1

[6] = tested on: barnyardgrass (Echinochloa crus-galli); test: Test A pre-/postemergence plant response; conditions: for Barnyardgrass plant response rating: visual injury, 0 to 100 scale (0 no effect, 100 complete control), approx. ten days
Outline: as §1

[7] = tested on: wheat (Triticum aestivum); test: Test A pre-/postemergence plant response
Outline: as §1

corn (Zea mays) = test: Test A pre-/postemergence plant response; conditions: for Corn plant response rating: visual injury, 0 to 100 scale (0 no effect, 100 complete control), approx. ten days
Outline: as §1

[8] = tested on: ducksalad (Heteranthera limosa); test: Test B flooded paddy test; conditions: for Plant response rating, Flood, Ducksalad: 250 g ai/ha, flooded paddy test, visual rating on 0 to 100 scale (0 no effect, 100 complete control) after 13 to 15 days; for Plant response rating, Ducksalad: Flood (flooded paddy test), 13 to 15 days; for Ducksalad plant response rating: Flood, 31 g ai/ha, scale 0 to 100 (0 no effect, 100 complete control)
Outline: (§2)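 Flooded-pot test: water raised to 3 cm above soil when treating, compound put in the water, level unchanged thereafter. Plants were at 2 leaves. Readout after 13 to 15 days, visual, relative to controls; 0 signifies no effect and 100 complete control.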

rice (Oryza sativa) = test: Test B flooded paddy test; conditions: for Plant response rating, Flood, Rice: 250 g ai/ha, flooded paddy test, visual rating on 0 to 100 scale (0 no effect, 100 complete control) after 13 to 15 days; for Plant response rating, Rice: Flood (flooded paddy test), 13 to 15 days; for Rice plant response rating: Flood, 31 g ai/ha, scale 0 to 100 (0 no effect, 100 complete control)
Outline: as §2

[9] = tested on: canarygrass (Phalaris minor); test: Test B postemergence plant response; conditions: Postemergence
Outline: (§3)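 Plants at the 1- to 4-leaf stage (2 to 18 cm tall), grown in pots of peat moss/vermiculite medium with wetting agent and starter nutrients, received postemergence applications of test chemicals. After 13 to 15 days in a greenhouse, injury was rated visually against untreated controls on a 0 (no effect) to 100 (complete control) scale.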

[10] = tested on: windgrass (Apera spica-venti); test: Test B postemergence plant response; conditions: Postemergence
Outline: as §3

[11] = tested on: chickweed (Stellaria media); test: Test B postemergence plant response; conditions: Postemergence
Outline: as §3

[12] = Postemergence, 125 g ai/ha, visual injury, 0 to 100 scale (0 no effect, 100 complete control), approx. ten days
[13] = Postemergence, 500 g ai/ha, visual injury, 0 to 100 scale (0 no effect, 100 complete control), approx. ten days
[14] = Preemergence, 125 g ai/ha, 0 to 100 scale where 0 is no effect and 100 is complete control, approximately ten days
[15] = Preemergence, 500 g ai/ha, 0 to 100 scale, 0 = no effect, 100 = complete control
[16] = Postemergence, 125 g ai/ha, 0 to 100 scale where 0 is no effect and 100 is complete control
[17] = 62 g ai/ha, scale of 0 to 100 where 0 is no effect and 100 is complete control
[18] = 125 g ai/ha, scale 0 to 100, 0 is no effect, 100 is complete control
[19] = 31 g ai/ha, 0 to 100 scale (0 no effect, 100 complete control)
[20] = 62 g ai/ha, scale 0 to 100 (0 no effect, 100 complete control)
[21] = 125 g ai/ha, scale 0 (no effect) to 100 (complete control), 13 to 15 days
[22] = 250 g ai/ha, scale 0 to 100 (0 no effect, 100 complete control), 13 to 15 days
[23] = Preemergence, 125 g ai/ha, 0 to 100 scale, 0 = no effect, 100 = complete control

CCCCn1c(-c2cc(F)cc(F)c2)ncc(C(=O)C2=C(O)C3CCC(C3)C2=O)c1=O (stereo not shown) [Compound 245]
Plant response rating, Morningglory [1, 12]: 100
Morningglory plant response rating [1, 13]: 100
Plant response rating, Morningglory [1, 14]: 20
Plant response rating, Morningglory [1, 15]: 60
Plant response rating, Pigweed [2, 12]: 100
Pigweed plant response rating [2, 13]: 100
Plant response rating, Pigweed [2, 14]: 80
Plant response rating, Pigweed [2, 15]: 90
Plant response rating, Crabgrass, Large [3, 16]: 90
Crabgrass, Large plant response rating ([3]; Postemergence, 500 g ai/ha): 90
Plant response rating, Crabgrass, Large [3, 14]: 80
Plant response rating, Crabgrass, Large [3, 15]: 100
Plant response rating, Foxtail, Giant [4, 12]: 100
Foxtail, Giant plant response rating [4, 13]: 100
Plant response rating, Foxtail, Giant [4, 14]: 80
Plant response rating, Foxtail, Giant [4, 15]: 90
Plant response rating, Velvetleaf [5, 12]: 100
Velvetleaf plant response rating [5, 13]: 100
Plant response rating, Velvetleaf [5, 14]: 70
Plant response rating, Velvetleaf [5, 15]: 100
Plant response rating, Barnyardgrass [6, 16]: 90
Barnyardgrass plant response rating ([6]; Postemergence, 500 g ai/ha): 100
Plant response rating, Barnyardgrass [6, 14]: 40
Plant response rating, Barnyardgrass [6, 15]: 100
Plant response rating, Wheat [7, 12]: 40
Wheat plant response rating [7, 13]: 80
Plant response rating, Wheat [7, 14]: 0
Plant response rating, Wheat [7, 15]: 20
Plant response rating, Corn (corn (Zea mays); [16]): 40
Corn plant response rating (corn (Zea mays); Postemergence, 500 g ai/ha): 90
Plant response rating, Corn (corn (Zea mays); [14]): 0
Plant response rating, Corn (corn (Zea mays); [15]): 20
Plant response rating, Flood, Ducksalad [8]: 100
Plant response rating, Ducksalad [8, 17]: 100
Plant response rating, Ducksalad [8, 18]: 100
Ducksalad plant response rating [8]: 100
Plant response rating, Flood, Rice (rice (Oryza sativa)): 90
Plant response rating, Rice (rice (Oryza sativa); [17]): 50
Plant response rating, Rice (rice (Oryza sativa); [18]): 50
Rice plant response rating (rice (Oryza sativa)): 50
Plant response rating, Canarygrass [9, 19]: 80
Plant response rating, Canarygrass [9, 20]: 95
Plant response rating, Canarygrass [9, 21]: 100
Plant response rating, Canarygrass [9, 22]: 100
Plant response rating, Windgrass [10, 19]: 65
Plant response rating, Windgrass [10, 20]: 70
Plant response rating, Windgrass [10, 21]: 95
Plant response rating, Windgrass [10, 22]: 98
Plant response rating, Chickweed [11, 19]: 80
Plant response rating, Chickweed [11, 20]: 85
Plant response rating, Chickweed [11, 21]: 100
Plant response rating, Chickweed [11, 22]: 100

CCn1c(-c2ccccc2)ncc(C(=O)C2=C(O)C3CCC(C3)C2=O)c1=O (stereo not shown) [Compound 239]
Plant response rating, Morningglory [1, 16]: 100
Morningglory plant response rating [1, 13]: 100
Plant response rating, Morningglory [1, 15]: 50
Plant response rating, Pigweed [2, 16]: 80
Pigweed plant response rating [2, 13]: 90
Plant response rating, Pigweed [2, 23]: 70
Plant response rating, Pigweed [2, 15]: 100
Plant response rating, Crabgrass, Large [3, 16]: 80
Crabgrass, Large plant response rating ([3]; Postemergence, 500 g ai/ha): 90
Plant response rating, Crabgrass, Large [3, 23]: 70
Plant response rating, Crabgrass, Large [3, 15]: 100
Plant response rating, Foxtail, Giant [4, 16]: 70
Foxtail, Giant plant response rating [4, 13]: 80
Plant response rating, Foxtail, Giant [4, 23]: 20
Plant response rating, Foxtail, Giant [4, 15]: 70
Plant response rating, Velvetleaf [5, 16]: 100
Velvetleaf plant response rating [5, 13]: 100
Plant response rating, Velvetleaf [5, 23]: 80
Plant response rating, Velvetleaf [5, 15]: 100
Plant response rating, Barnyardgrass [6, 16]: 90
Barnyardgrass plant response rating ([6]; Postemergence, 500 g ai/ha): 90
Plant response rating, Barnyardgrass [6, 23]: 20
Plant response rating, Barnyardgrass [6, 15]: 80
Plant response rating, Wheat [7, 16]: 0
Wheat plant response rating [7, 13]: 0
Plant response rating, Wheat [7, 23]: 0
Plant response rating, Wheat [7, 15]: 30
Plant response rating, Corn (corn (Zea mays); [16]): 30
Corn plant response rating (corn (Zea mays); Postemergence, 500 g ai/ha): 30
Plant response rating, Corn (corn (Zea mays); [23]): 0
Plant response rating, Corn (corn (Zea mays); [15]): 0
Plant response rating, Flood, Ducksalad [8]: 80
Plant response rating, Ducksalad [8, 17]: 0
Plant response rating, Ducksalad [8, 18]: 70
Ducksalad plant response rating [8]: 0
Plant response rating, Flood, Rice (rice (Oryza sativa)): 0
Plant response rating, Rice (rice (Oryza sativa); [17]): 0
Plant response rating, Rice (rice (Oryza sativa); [18]): 0
Rice plant response rating (rice (Oryza sativa)): 0
Plant response rating, Canarygrass [9, 19]: 0
Plant response rating, Canarygrass [9, 20]: 0
Plant response rating, Canarygrass [9, 21]: 0
Plant response rating, Canarygrass [9, 22]: 0
Plant response rating, Windgrass [10, 19]: 20
Plant response rating, Windgrass [10, 20]: 30
Plant response rating, Windgrass [10, 21]: 30
Plant response rating, Windgrass [10, 22]: 70
Plant response rating, Chickweed [11, 19]: 90
Plant response rating, Chickweed [11, 20]: 98
Plant response rating, Chickweed [11, 21]: 98
Plant response rating, Chickweed [11, 22]: 100
